Data published in patent publication US11000033B2, “Ketone or oxime compound, and herbicide” (NISSAN CHEMICAL CORPORATION, priority 2014, dated 2021).

How the values were obtained:
Assay type in all cases: in vivo
rapeseed [1] = assay: Test Example 4: effect on crop by soil treatment (symbol g); details: application herbicide amount 320 g/ha
Procedure, shortened: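 Diluvial soil (sterilized) in boxes; seeds placed spot-wise alongside weed species; ~1.5 cm covering soil. Greenhouse, 25–30° C.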

[2] = test system: Echinochloa crus-galli var. crus-galli; assay: Test Example 4: herbicidal effect by soil treatment (symbol H); details: application herbicide amount 320 g/ha
Procedure, shortened: (§1)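 Seeds were sown in sterilized diluvial soil, covered with about 1.5 cm of soil, and the soil surface was sprayed with a water-diluted emulsion of the compound at a predetermined rate. Plants grew in a greenhouse at 25° C. to 30° C.; effects were scored visually 3 weeks after application.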

Setaria viridis [3] = assay: Test Example 5: herbicidal effect by foliage application, plastic box (symbol G); details: 320 g/ha, 3 weeks after application
Procedure, shortened: (§2)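 Emulsion formulation, diluted with water to the intended rate, was applied uniformly to leaves by small sprayer. Recipients were 14-day greenhouse-grown seedlings (25° C. to 30° C.). Assessment followed at 3 weeks.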

Alopecurus myosuroides = assay: Test Example 5: herbicidal effect by foliage application, plastic box (symbol J); details: 320 g/ha, 3 weeks after application
Procedure, shortened: as §2

Stellaria media [4] = assay: Test Example 4: herbicidal effect by soil treatment (symbol P); details: application herbicide amount 320 g/ha
Procedure, shortened: as §1

Monochoria vaginalis = assay: Test Example 1: herbicidal activity, application before weed generation in submerged conditions (symbol C); details: application herbicide amount 320 g/ha
Procedure, shortened: (§3)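 Greenhouse growth at 25–30 °C lasted 3 weeks after treatment, when each weed was graded 0–5 by herbicidal ratio. Treatment was a diluted emulsion applied to the water surface of 4 cm-submerged alluvial soil on the sowing day.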

Galium spurium [5] = assay: Test Example 4: herbicidal effect by soil treatment (symbol Q); details: application herbicide amount 320 g/ha
Procedure, shortened: as §1

rapeseed [6] = assay: Test Example 5: effect on crop by foliage application, plastic box (symbol g); details: 320 g/ha, 3 weeks after application
Procedure, shortened: (§4)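 Foliage-application test plants come from spot sowing in sterilized diluvial soil under a soil layer of about 1.5 cm, grown at 25° C. to 30° C. in a greenhouse.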

Lolium multiflorum Lam. = assay: Test Example 4: herbicidal effect by soil treatment (symbol K); details: application herbicide amount 320 g/ha
Procedure, shortened: as §1

Amaranthus retroflexus = assay: Test Example 4: herbicidal effect by soil treatment (symbol N); details: application herbicide amount 320 g/ha
Procedure, shortened: as §1

Galium spurium [7] = assay: Test Example 5: herbicidal effect by foliage application, plastic box (symbol Q); details: 320 g/ha, 3 weeks after application
Procedure, shortened: as §2

wheat = assay: Test Example 5: effect on crop by foliage application, plastic box (symbol e); details: 320 g/ha, 3 weeks after application
Procedure, shortened: as §4

corn = assay: Test Example 4: effect on crop by soil treatment (symbol c); details: application herbicide amount 320 g/ha
Procedure, shortened: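 Crop seed is sown in spots together with several weed species in a box of sterilized diluvial soil. It is covered by about 1.5 cm of soil and kept in a greenhouse held between 25° C. and 30° C.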

Setaria viridis [8] = assay: Test Example 4: herbicidal effect by soil treatment (symbol G); details: application herbicide amount 320 g/ha
Procedure, shortened: as §1

Stellaria media [9] = assay: Test Example 5: herbicidal effect by foliage application, plastic box (symbol P); details: 320 g/ha, 3 weeks after application
Procedure, shortened: as §2

Apera spica-venti = assay: Test Example 4: herbicidal effect by soil treatment (symbol L); details: application herbicide amount 320 g/ha
Procedure, shortened: as §1

Leptochloa chinensis = assay: Test Example 3: herbicidal effect by foliage application, Wagner pot (symbol D); details: application herbicide amount 320 g/ha
Procedure, shortened: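 In a shallow-flooded alluvial soil system held at 25–30 °C, plants including rice grew for 14 days and were then sprayed over the foliage with emulsion diluted to a fixed herbicide amount. Visual rating followed at 3 weeks.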

Scirpus juncoides = assay: Test Example 1: herbicidal activity, application before weed generation in submerged conditions (symbol B); details: application herbicide amount 320 g/ha
Procedure, shortened: as §3

[10] = test system: Echinochloa crus-galli var. crus-galli; assay: Test Example 5: herbicidal effect by foliage application, plastic box (symbol H); details: 320 g/ha, 3 weeks after application
Procedure, shortened: as §2

| SMILES | g (rapeseed) effect on crop grade (rapeseed [1]) | H (Echinochloa crus-galli var. crus-galli) herbicidal effect grade [2] | G: Setaria viridis, herbicidal effect grade (Setaria viridis [3]) | J: Alopecurus myosuroides, herbicidal effect grade (Alopecurus myosuroides) | P (Stellaria media) herbicidal effect grade (Stellaria media [4]) | Herbicidal effect grade, C: Monochoria vaginalis (Monochoria vaginalis) | Q (Galium spurium) herbicidal effect grade (Galium spurium [5]) | g: rapeseed, effect on crop grade (rapeseed [6]) | K (Lolium multiflorum Lam.) herbicidal effect grade (Lolium multiflorum Lam.) | N (Amaranthus retroflexus) herbicidal effect grade (Amaranthus retroflexus) | Q: Galium spurium, herbicidal effect grade (Galium spurium [7]) | e: wheat, effect on crop grade (wheat) | c (corn) effect on crop grade (corn) | G (Setaria viridis) herbicidal effect grade (Setaria viridis [8]) | P: Stellaria media, herbicidal effect grade (Stellaria media [9]) | L (Apera spica-venti) herbicidal effect grade (Apera spica-venti) | herbicidal effect on D (Leptochloa chinensis), grade 0-5 (Leptochloa chinensis) | Herbicidal effect grade, B: Scirpus juncoides (Scirpus juncoides) | H: Echinochloa crus-galli var. crus-galli, herbicidal effect grade [10] |
| --- | --- | --- | --- | --- | --- | --- | --- | --- | --- | --- | --- | --- | --- | --- | --- | --- | --- | --- | --- |
| CON=C(C)CC1CC(O)=C(c2c(C)cc(C)cc2C)C1=O (stereo not drawn) [1-002, 3-hydroxy-2-mesityl-5-{2-(methoxyimino)propyl}cyclopent-2-enone] | 5 (Herbicidal ratio of 90% or more (almost completely withered)) | 5 (Herbicidal ratio of 90% or more (almost completely withered)) | 5 (Herbicidal ratio of 90% or more (almost completely withered)) | 5 (Herbicidal ratio of 90% or more (almost completely withered)) | 3 (Herbicidal ratio of 40% or higher and lower than 70%) | 4 (Herbicidal ratio of 70% or higher and lower than 90%) | 1 (Herbicidal ratio of 5% or higher and lower than 20%) | 5 (Herbicidal ratio of 90% or more (almost completely withered)) | 5 (Herbicidal ratio of 90% or more (almost completely withered)) | 5 (Herbicidal ratio of 90% or more (almost completely withered)) | 4 (Herbicidal ratio of 70% or higher and lower than 90%) | 5 (Herbicidal ratio of 90% or more (almost completely withered)) | 4 (Herbicidal ratio of 70% or higher and lower than 90%) | 3 (Herbicidal ratio of 40% or higher and lower than 70%) | 4 (Herbicidal ratio of 70% or higher and lower than 90%) | 5 (Herbicidal ratio of 90% or more (almost completely withered)) | 5 (Herbicidal ratio of 90% or more (almost completely withered)) | 4 (Herbicidal ratio of 70% or higher and lower than 90%) | 5 (Herbicidal ratio of 90% or more (almost completely withered)) |
| CCON=C(C)CC1CC(O)=C(c2c(C)cc(C)cc2C)C1=O (stereo not drawn) [1-003] | 4 (Herbicidal ratio of 70% or higher and lower than 90%) | 5 (Herbicidal ratio of 90% or more (almost completely withered)) | 5 (Herbicidal ratio of 90% or more (almost completely withered)) | 5 (Herbicidal ratio of 90% or more (almost completely withered)) | 3 (Herbicidal ratio of 40% or higher and lower than 70%) | 5 (Herbicidal ratio of 90% or more (almost completely withered)) | 0 (Herbicidal ratio of 5% or lower (almost no effect)) | 4 (Herbicidal ratio of 70% or higher and lower than 90%) | 5 (Herbicidal ratio of 90% or more (almost completely withered)) | 3 (Herbicidal ratio of 40% or higher and lower than 70%) | 3 (Herbicidal ratio of 40% or higher and lower than 70%) | 5 (Herbicidal ratio of 90% or more (almost completely withered)) | 5 (Herbicidal ratio of 90% or more (almost completely withered)) | 3 (Herbicidal ratio of 40% or higher and lower than 70%) | 2 (Herbicidal ratio of 20% or higher and lower than 40%) | 5 (Herbicidal ratio of 90% or more (almost completely withered)) | 5 (Herbicidal ratio of 90% or more (almost completely withered)) | 4 (Herbicidal ratio of 70% or higher and lower than 90%) | 5 (Herbicidal ratio of 90% or more (almost completely withered)) |
| CC(CC1CC(O)=C(c2c(C)cc(C)cc2C)C1=O)=NOCC(=O)N1CCOCC1 (stereo not drawn) [1-025] | 4 (Herbicidal ratio of 70% or higher and lower than 90%) | 5 (Herbicidal ratio of 90% or more (almost completely withered)) | 4 (Herbicidal ratio of 70% or higher and lower than 90%) | 5 (Herbicidal ratio of 90% or more (almost completely withered)) | 0 (Herbicidal ratio of 5% or lower (almost no effect)) | 0 (Herbicidal ratio of 5% or lower (almost no effect)) | 0 (Herbicidal ratio of 5% or lower (almost no effect)) | 4 (Herbicidal ratio of 70% or higher and lower than 90%) | 5 (Herbicidal ratio of 90% or more (almost completely withered)) | 0 (Herbicidal ratio of 5% or lower (almost no effect)) | 4 (Herbicidal ratio of 70% or higher and lower than 90%) | 4 (Herbicidal ratio of 70% or higher and lower than 90%) | 0 (Herbicidal ratio of 5% or lower (almost no effect)) | 5 (Herbicidal ratio of 90% or more (almost completely withered)) | 4 (Herbicidal ratio of 70% or higher and lower than 90%) | 5 (Herbicidal ratio of 90% or more (almost completely withered)) | 5 (Herbicidal ratio of 90% or more (almost completely withered)) | 2 (Herbicidal ratio of 20% or higher and lower than 40%) | 4 (Herbicidal ratio of 70% or higher and lower than 90%) |
